The record followed here is ChEMBL document CHEMBL1134934, “Synthesis and evaluation of 5-HT(2A) and 5-HT(2C) receptor binding affinities of novel pyrimidine derivatives” (Bioorg Med Chem Lett, 2002).

For experiment [1], the target named is T1, 5-hydroxytryptamine receptor 2A (Homo sapiens, UniProt P28223). The experiment can be described thus: Affinity for 5-hydroxytryptamine 2A receptor.
The target of experiment [2] is T2, 5-hydroxytryptamine receptor 2C (Homo sapiens, UniProt P28335).
T2 sequence (P28335 whole entry): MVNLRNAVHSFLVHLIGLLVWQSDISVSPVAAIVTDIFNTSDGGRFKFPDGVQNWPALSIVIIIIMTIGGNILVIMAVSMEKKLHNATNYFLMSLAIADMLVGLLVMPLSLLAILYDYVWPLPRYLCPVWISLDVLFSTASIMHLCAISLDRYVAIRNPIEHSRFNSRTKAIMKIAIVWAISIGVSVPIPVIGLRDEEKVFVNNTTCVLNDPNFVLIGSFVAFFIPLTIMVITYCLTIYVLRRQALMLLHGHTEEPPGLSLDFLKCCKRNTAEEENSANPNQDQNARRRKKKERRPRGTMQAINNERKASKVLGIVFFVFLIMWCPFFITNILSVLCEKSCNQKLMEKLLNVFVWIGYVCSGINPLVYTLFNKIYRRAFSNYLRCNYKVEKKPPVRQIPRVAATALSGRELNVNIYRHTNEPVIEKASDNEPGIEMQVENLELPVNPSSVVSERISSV
Description: Affinity for 5-hydroxytryptamine 2C receptor.

In experiment [3] the target is Serotonin 2 receptors; 5-HT2a & 5-HT2c (Homo sapiens) (UniProt P28223+P28335). The experiment can be described thus: Relative affinity for 5-HT2C over 5-HT2A receptors. Format: protein assay.
Experiment [4] addresses T1, 5-hydroxytryptamine receptor 2A. The experiment can be described thus: Binding affinity towards 5-hydroxytryptamine 2A receptor was determined at a concentration of 0.00001 mol/L.
Experiment [5] deals with T3, 5-hydroxytryptamine receptor 2C (Homo sapiens) (UniProt P28335).
T3 sequence (whole entry): T2 sequence (P28335 whole entry)
Description: Binding affinity towards 5-hydroxytryptamine 2C receptor was determined at a concentration of 0.00001 mol/L.

For experiment [6], the target named is T1, 5-hydroxytryptamine receptor 2A. Description: Binding affinity towards 5-hydroxytryptamine 2A receptor was determined at a concentration of 0.000001 mol/L.
Experiment [7] deals with T3, 5-hydroxytryptamine receptor 2C (Homo sapiens). The experiment can be described thus: Binding affinity towards 5-hydroxytryptamine 2C receptor was determined at a concentration of 0.000001 mol/L.

T1 sequence (P28223 whole entry): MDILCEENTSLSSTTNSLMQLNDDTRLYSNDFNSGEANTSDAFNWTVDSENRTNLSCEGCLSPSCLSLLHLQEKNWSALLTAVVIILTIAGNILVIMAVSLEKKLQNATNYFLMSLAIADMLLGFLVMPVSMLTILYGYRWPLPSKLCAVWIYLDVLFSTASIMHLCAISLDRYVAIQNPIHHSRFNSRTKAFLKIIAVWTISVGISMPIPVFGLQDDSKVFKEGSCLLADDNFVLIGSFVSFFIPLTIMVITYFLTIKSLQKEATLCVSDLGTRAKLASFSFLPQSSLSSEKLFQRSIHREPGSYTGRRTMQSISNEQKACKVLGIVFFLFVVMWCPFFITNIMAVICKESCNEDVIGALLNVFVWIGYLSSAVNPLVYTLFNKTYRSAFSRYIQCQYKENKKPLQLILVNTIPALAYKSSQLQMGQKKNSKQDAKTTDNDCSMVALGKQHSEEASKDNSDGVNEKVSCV
Serotonin 2 receptors; 5-HT2a & 5-HT2c (Homo sapiens), sequence (P28223 whole entry, looked up, one chain of several): as the sequence (P28223 whole entry) above

One may read the Ki as the dissociation constant of the complex between target and ligand, obtained from inhibition or displacement. As for `COc1ccc(Cc2c(N)nc(SCCN3CCN(Cc4ccccc4C)CC3)nc2N)cc1`, the Ki worked out at 11.5 nM in experiment [1] and 16.4 nM in experiment [2]. Also, the Ratio in experiment [3] was found to be 0.7.

A word on the inhibition: it is the percentage by which the read-out fell short of the control. Read a low inhibition as a weak effect. With `Nc1cc(N)nc(SCCCN2CCN(Cc3ccc([N+](=O)[O-])cc3)CC2)n1`, the results for the inhibition in experiment [4] and in experiment [5] were 54% and 21%, respectively.

As to `Nc1nc(SCCN2CCN(Cc3ccccc3Cl)CC2)nc(N)c1Cc1ccccc1O`, the inhibition constant Ki in experiment [1] stood at 22.8 nM; in experiment [2] it was 5.5 nM. Moreover, the Ratio in experiment [3] was determined as 4.2.

On to `Nc1nc(SCCN2CCN(Cc3ccccc3C(F)(F)F)CC2)nc(N)c1Cc1ccccc1`, for which the inhibitory constant (Ki) in experiment [1] came to 61.1 nM; in experiment [2], 21.4 nM. For the same compound, the Ratio in experiment [3] was determined as 2.9.

For `Nc1nc(SCCN2CCN(Cc3ccc([N+](=O)[O-])cc3)CC2)nc(N)c1Cc1ccccc1`, the inhibition in experiment [6] was 99%; in experiment [7], 67%.

For `Nc1cc(N)nc(SCCN2CCN(Cc3ccc([N+](=O)[O-])cc3)CC2)n1`, the inhibition in experiment [4] amounted to 89%; in experiment [5], 77%.

`COc1ccccc1Cc1c(N)nc(SCCN2CCN(Cc3cccc(C(F)(F)F)c3)CC2)nc1N`: the values for the Ki in experiment [1] and in experiment [2] were 60.4 nM and 5.5 nM, respectively. Moreover, the Ratio in experiment [3] was determined as 11.

Take `COc1ccc(Cc2c(N)nc(SCCN3CCN(Cc4ccc(C)cc4)CC3)nc2N)cc1`: the inhibition constant (Ki) in experiment [1] came to 12.5 nM; in experiment [2], 300 nM. The Ratio in experiment [3] worked out at 0.04.

In the case of `COc1ccccc1Cc1c(N)nc(SCCN2CCN(Cc3ccccc3C(F)(F)F)CC2)nc1N`, the results for the Ki in experiment [1] and in experiment [2] were 47.7 nM and 7.7 nM, respectively. The Ratio in experiment [3] was determined as 6.2.

As for `Nc1nc(SCCN2CCN(Cc3ccc([N+](=O)[O-])cc3)CC2)nc(N)c1CC1CCCCC1`, the inhibition in experiment [4] worked out at 10%; in experiment [5] it was 32%.

In the case of `COc1cccc(Cc2c(N)nc(SCCN3CCN(Cc4cccc(C(F)(F)F)c4)CC3)nc2N)c1`, the values for the Ki in experiment [1] and in experiment [2] were 44.6 nM and 4.9 nM, respectively. In experiment [3], the Ratio amounted to 9.1.

Consider `CC(C)Oc1ccccc1Cc1c(N)nc(SCCN2CCN(Cc3cccc(C(F)(F)F)c3)CC2)nc1N`, for which the Ki is 121 nM in experiment [1] and 8.6 nM in experiment [2]. For the same compound, the Ratio in experiment [3] came out at 14.

For `Nc1nc(SCCN2CCN(Cc3cccc(C(F)(F)F)c3)CC2)nc(N)c1Cc1ccccc1O`, the Ki in experiment [1] is 93.2 nM; in experiment [2] it was 6.2 nM. Further, the Ratio in experiment [3] is 15.

For the compound `Nc1nc(SCCN2CCN(Cc3ccccc3Cl)CC2)nc(N)c1Cc1ccccc1Cl`, the inhibitory constant (Ki) amounted to 11.8 nM in experiment [1] and 8.7 nM in experiment [2]. In addition, the Ratio in experiment [3] worked out at 1.4.

For `Nc1nc(SCCN2CCN(Cc3ccccc3Cl)CC2)nc(N)c1Cc1ccccc1`, the Ki in experiment [1] came to 18.3 nM; in experiment [2] it was 11.9 nM. Also, in experiment [3], the Ratio is 1.5.

Consider `CCOc1ccccc1Cc1c(N)nc(SCCN2CCN(Cc3cccc(C(F)(F)F)c3)CC2)nc1N`, for which the inhibition constant Ki in experiment [1] turned out to be 69.9 nM; in experiment [2], 9.1 nM. In experiment [3], the Ratio was 7.7.

For `COc1ccc(Cc2c(N)nc(SCCN3CCN(Cc4ccccc4Cl)CC3)nc2N)cc1`, the results for the Ki in experiment [1] and in experiment [2] were 5.7 nM and 10.4 nM, respectively. Moreover, the Ratio in experiment [3] was 0.6.

For `COc1cc(Cc2c(N)nc(SCCN3CCN(Cc4ccccc4Cl)CC3)nc2N)cc(OC)c1OC`, the Ki in experiment [1] was 4.3 nM; in experiment [2], 18.3 nM. Besides, the Ratio in experiment [3] stood at 0.2.
